Where two headings read alike, the source gives them in different places.
Legend:
[1] = PAMPA BBB permeability (brain polar lipid coated filter); type: in vitro ADME; details: for MR (membrane retention): pH 7.4, 5 h; for Papp at 5 h, 500 μM: PAMPA
Method: The donor solution (150 μL) was then added to each well of the filter plate. 300 μL of the solution (50 % DMSO in phosphate buffer) were added to each well of the acceptor plate. The sandwich plate was assembled and incubated for 5 h at room temperature. After the incubation time, plates were separated, samples were taken from both the donor and acceptor wells, and the compound concentration was measured by UV/LC–MS. All compounds were tested in three independent experiments. […] (3) Papp=VD×VA/VD+VAAt-ln(1-r)
Equation (3): Experimental apparent permeability (Papp) calculation as described in the literature modified to yield values in cm s^−1 [67, 68]. […] Drug concentration is estimated by using the peak area integration. (4) %MR=[r-D+A]/Eq×100
Equation (4): Membrane retention calculation: r is the ratio between drug concentration in the acceptor and equilibrium solutions. D, A, and Eq represent the drug concentration in the donor, acceptor, and equilibrium solutions, respectively.

full-length human PARP1 = target: T1, full-length human PARP1 (Homo sapiens, UniProt P09874); assay: PARP1 enzymatic assay (homogeneous NAD+ consumption assay); type: biochemical; details: 5 nM PARP1, 500 nM NAD+, 30 min
T1 construct: Briefly, full‐length human PARP1 was produced in E. coli Rosetta2 (DE3); made in house; host or cells: E. coli Rosetta2 (DE3)
Method: PARP1 was expressed and purified as described in the literature. Briefly, full‐length human PARP1 was produced in E. coli Rosetta2 (DE3). The cells were harvested by centrifugation, and re‐suspended in lysis buffer containing 50 mM HEPES pH 8.0, 500 mM NaCl, 10 % glycerol, 0.5 mM TCEP and 10 mM imidazole. The sample was lysed using sonication in the presence of DNAse1 and 3‐aminobenzamide, centrifuged at 18,000 rpm for 1 h and the supernatant was filtered. The clarified sample was loaded to a HiTrap^TM IMAC column (Cytiva), washed with lysis buffer, then with a similar buffer containing 1 M NaCl, and finally with lysis buffer containing 25 mM imidazole before eluting the protein with 500 mM imidazole. The eluted sample was then diluted to reduce NaCl concentration to 250 mM, and loaded to a HiTrap Heparin column (Cytiva). The column was washed with 50 mM HEPES, 250 mM NaCl, 10 % glycerol, 1 mM EDTA, 0.1 mM TCEP, pH 7.5. and the sample was eluted using a gradient with a similar buffer containing 1 M NaCl. Fractions were analyzed by SDS‐PAGE and those containing protein were pooled and concentrated before aliquoting and stored at −70 °C.
IC50 was determined using homogeneous NAD^+ consumption assay. 5 nM PARP1 was incubated with each compound in log half dilution series for 30 min in 50 mM Tris pH 8.0, 5 mM MgCl2, 0.2 mg mL^−1 BSA, 10 μg mL^−1 activated DNA and 500 nM NAD^+. The reactions were performed in quadruplicates and resulting IC50 curves were fitted to a sigmoidal dose‐response curve (four variables) using GraphPad Prism version 8.02. Each experiment was repeated three times from which pIC50±SEM was calculated. Compounds with IC50 above 1 μM were measured only once.

[2] = pH 7.4, pH 7.4, donor 500 μM, 5 h, room temperature, read-out: PAMPA BBB Papp

T1 sequence (P09874 whole entry): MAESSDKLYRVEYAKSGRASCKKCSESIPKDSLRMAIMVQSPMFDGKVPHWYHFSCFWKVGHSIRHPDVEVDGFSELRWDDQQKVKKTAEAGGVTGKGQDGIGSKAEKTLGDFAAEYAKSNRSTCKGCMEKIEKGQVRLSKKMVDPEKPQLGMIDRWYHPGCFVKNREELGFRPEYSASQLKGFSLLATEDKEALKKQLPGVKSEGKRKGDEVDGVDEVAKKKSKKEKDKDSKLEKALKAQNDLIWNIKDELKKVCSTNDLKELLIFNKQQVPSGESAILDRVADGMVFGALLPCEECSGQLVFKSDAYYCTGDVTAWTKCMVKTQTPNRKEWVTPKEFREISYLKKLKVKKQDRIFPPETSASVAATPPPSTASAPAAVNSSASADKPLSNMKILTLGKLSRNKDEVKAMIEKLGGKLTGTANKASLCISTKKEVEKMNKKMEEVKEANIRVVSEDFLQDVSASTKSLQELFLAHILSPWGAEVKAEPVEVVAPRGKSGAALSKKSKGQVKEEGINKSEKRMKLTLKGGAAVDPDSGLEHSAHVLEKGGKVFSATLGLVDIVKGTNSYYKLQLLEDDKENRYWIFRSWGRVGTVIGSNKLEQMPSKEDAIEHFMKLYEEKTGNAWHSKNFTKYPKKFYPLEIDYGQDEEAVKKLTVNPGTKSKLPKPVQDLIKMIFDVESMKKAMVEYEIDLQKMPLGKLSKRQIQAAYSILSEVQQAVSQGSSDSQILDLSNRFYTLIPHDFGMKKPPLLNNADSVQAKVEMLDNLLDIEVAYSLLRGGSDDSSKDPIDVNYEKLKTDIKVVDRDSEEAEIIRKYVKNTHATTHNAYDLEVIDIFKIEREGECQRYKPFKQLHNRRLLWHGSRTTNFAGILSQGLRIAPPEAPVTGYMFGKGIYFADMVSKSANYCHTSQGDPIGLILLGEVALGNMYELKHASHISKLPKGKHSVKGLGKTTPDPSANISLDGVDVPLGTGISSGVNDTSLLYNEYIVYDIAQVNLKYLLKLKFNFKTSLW

Structure (SMILES) | MR (membrane retention) ([1]; PAMPA BBB) [%] | IC50 (result in words) (full-length human PARP1) | IC50 (full-length human PARP1; averaged on three replicas) [µM] | further results
O=c1[nH]nc(-c2ccc(Br)cc2)c2ccccc12 [Row86 (I), 4‐(4‐bromophenyl)‐2H‐phthalazin‐1‐one] | – | sub‐micromolar | 0.395 | –
Cc1cc2cc(C(=O)OCc3ccc(C(=O)N4CCOCC4)c(C)c3)ccc2c(=O)[nH]1 [Row514, [3‐Methyl‐4‐(morpholine‐4‐carbonyl)phenyl]methyl 3‐methyl‐1‐oxo‐1,2‐dihydroisoquinoline‐6‐carboxylate] | 0.8 | – | – | BBB permeability relative to reference Olaparib ([1]; PAMPA BBB, ratio of Papp): approximately 20 times; Papp at 5 h, 500 μM [1, 2]: 3.25 nm/s; IC50 (full-length human PARP1; IC50 above 1 μM measured once): 19 µM
Cc1cc(CN)ccc1-c1cc(F)c2c(c1)C(=O)NCC2.Cl [Row528 (I), 7‐[4‐(Aminomethyl)‐2‐methylphenyl]‐5‐fluoro‐1,2,3,4‐tetrahydroisoquinolin‐1‐one hydrochloride] | – | No inhibition | – | –
Cc1ccc(Cn2cc(CCN)c3c(C#N)cccc32)cc1 [Row847, 3‐(2‐Aminoethyl)‐1‐[(4‐methylphenyl)methyl]‐1H‐indole‐4‐carbonitrile] | – | – | – | IC50 (full-length human PARP1; IC50 above 1 μM measured once): 16 µM

Continued, in another order:

MR (membrane retention) ([1]; PAMPA BBB) [%] | IC50 (result in words) (full-length human PARP1) | IC50 (full-length human PARP1; averaged on three replicas) [µM] | Structure (SMILES) | further results
3.0 | – | – | O=C(c1cc(Cc2n[nH]c(=O)c3ccccc23)ccc1F)N1CCN(C(=O)C2CC2)CC1 [Olaparib, reference compound] | –
– | No inhibition | – | Cc1cc(COC(=O)c2c(C)ccc3[nH]ncc23)ccc1C(=O)N1CCOCC1 [Row26, [3‐Methyl‐4‐(morpholine‐4‐carbonyl)phenyl]methyl 5‐methyl‐1H‐indazole‐4‐carboxylate] | –
– | sub‐micromolar | 0.755 | CCCC(O)c1ccc(-c2n[nH]c(=O)c3ccccc23)cc1 (stereo not drawn) [Row86, 4‐[4‐(1‐Hydroxybutyl)phenyl]‐1,2‐dihydrophthalazin‐1‐one] | –
– | No inhibition | – | C#CCCNCc1ccc(-c2cc(F)c3c(c2)C(=O)NCC3)c(C)c1 [Row528, 7‐(4‐{[(But‐3‐yn‐1‐yl)amino]methyl}‐2‐methylphenyl)‐5‐fluoro‐1,2,3,4‐tetrahydroisoquinolin‐1‐one] | –
3.6 | sub‐micromolar | 0.908 | CC1CC1C(=O)c1ccc(-c2n[nH]c(=O)c3ccccc23)cc1 (stereo not drawn) [Row745(2), 4‐[4‐(2‐Methylcyclopropanecarbonyl)phenyl]‐1,2‐dihydrophthalazin‐1‐one] | Papp at 5 h, 500 μM ([1]; pH 7.4, PAMPA BBB, read-out: BBB permeability (diffusion)): 21 nm/s; Papp at 5 h, 500 μM [1, 2]: 21 nm/s

Source: PMC11475289, “Synthetically accessible de novo design using reaction vectors: Application to PARP1 inhibitors” (Molecular Informatics, 2024)
